Data: PubChem BioAssay AID1963864 (Molecular Pharmacology Branch, DTP, NCI, 2024)
“And” between values parts separate entries of the source, which are not always exact repeats. Equal values may be shown once.

Test system: KRAS PDC multicell spheroid viability
Assay: Anticancer human tumor 521955-158-R6-J3-PDC patient-derived pancreatic carcinoma cell line growth inhibition [KRAS2]
Conditions: for viability, T/C: stronger effect = lower value
Method in brief: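 KRAS-mutant tumor cells were grown as spheroids with HUVEC endothelial cells and human MSCs as stroma. Targeted agents were tested alone and with KRAS pathway inhibitors. Doses started at or near clinical Cmax, or 10 microM, descending half-log.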

[1] = curve of first compound, second compound 0.1 µM
[2] = curve of first compound, second compound 0.316 µM
[3] = curve of first compound, second compound 1 µM
[4] = curve of first compound, second compound 3.16 µM
[5] = curve of first compound, second compound 10 µM
[6] = second compound 0.1 µM, first compound 0.000316 µM
[7] = second compound 0.1 µM, first compound 0.001 µM
[8] = second compound 0.1 µM, first compound 0.00316 µM
[9] = second compound 0.1 µM, first compound 0.01 µM
[10] = second compound 0.1 µM, first compound 0.0316 µM
[11] = second compound 0.1 µM, first compound 0.1 µM
[12] = second compound 0.316 µM, first compound 0.000316 µM
[13] = second compound 0.316 µM, first compound 0.001 µM
[14] = second compound 0.316 µM, first compound 0.00316 µM
[15] = second compound 0.316 µM, first compound 0.01 µM
[16] = second compound 0.316 µM, first compound 0.0316 µM
[17] = second compound 0.316 µM, first compound 0.1 µM
[18] = second compound 1 µM, first compound 0.000316 µM
[19] = second compound 1 µM, first compound 0.001 µM
[20] = second compound 1 µM, first compound 0.00316 µM
[21] = second compound 1 µM, first compound 0.01 µM
[22] = second compound 1 µM, first compound 0.0316 µM
[23] = second compound 1 µM, first compound 0.1 µM
[24] = second compound 3.16 µM, first compound 0.000316 µM
[25] = second compound 3.16 µM, first compound 0.001 µM
[26] = second compound 3.16 µM, first compound 0.00316 µM
[27] = second compound 3.16 µM, first compound 0.01 µM
[28] = second compound 3.16 µM, first compound 0.0316 µM
[29] = second compound 3.16 µM, first compound 0.1 µM
[30] = second compound 10 µM, first compound 0.000316 µM
[31] = second compound 10 µM, first compound 0.001 µM
[32] = second compound 10 µM, first compound 0.00316 µM
[33] = second compound 10 µM, first compound 0.01 µM
[34] = second compound 10 µM, first compound 0.0316 µM
[35] = second compound 10 µM, first compound 0.1 µM
[36] = second compound 0.1 µM, first compound 0.316 µM
[37] = second compound 0.1 µM, first compound 1 µM
[38] = second compound 0.1 µM, first compound 3.16 µM
[39] = second compound 0.316 µM, first compound 0.316 µM
[40] = second compound 0.316 µM, first compound 1 µM
[41] = second compound 0.316 µM, first compound 3.16 µM
[42] = second compound 1 µM, first compound 0.316 µM
[43] = second compound 1 µM, first compound 1 µM
[44] = second compound 1 µM, first compound 3.16 µM
[45] = second compound 3.16 µM, first compound 0.316 µM
[46] = second compound 3.16 µM, first compound 1 µM
[47] = second compound 3.16 µM, first compound 3.16 µM
[48] = second compound 10 µM, first compound 0.316 µM
[49] = second compound 10 µM, first compound 1 µM
[50] = second compound 10 µM, first compound 3.16 µM
[51] = second compound 0.1 µM, first compound 10 µM
[52] = second compound 0.316 µM, first compound 10 µM
[53] = second compound 1 µM, first compound 10 µM
[54] = second compound 3.16 µM, first compound 10 µM
[55] = second compound 10 µM, first compound 10 µM
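Note: drug exposure lasted seven days.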
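Throughout, for viability, T/C: 100% = DMSO vehicle wells and lower means fewer viable cells.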

## CN(C)C/C=C/C(=O)Nc1cc2c(Nc3ccc(F)c(Cl)c3)ncnc2cc1O[C@H]1CCOC1
Compound 0.000316 µM
  viability, T/C: 93.6% [middle of 5 runs]
Compound 0.001 µM
  viability, T/C: 82.4% [middle of 5 runs]
Compound 0.00316 µM
  viability, T/C: 81.6% [middle of 5 runs]
Compound 0.01 µM
  viability, T/C: 68.3% [middle of 5 runs]
Compound 0.0316 µM
  viability, T/C: 62.6% [middle of 5 runs]
Compound 0.1 µM
  viability, T/C: 63.5% [middle of 5 runs]
Curve of compound
  IC50: > 100 nM

## CC(C)n1nc(-c2ccc3oc(N)nc3c2)c2c(N)ncnc21 + C=CC(=O)N1CCN(c2nc(=O)n(-c3c(C)ccnc3C(C)C)c3nc(-c4c(O)cccc4F)c(F)cc23)C(C)C1
[1]
  IC50: > 100 nM
[2]
  IC50: > 100 nM
[3]
  IC50: > 100 nM
[4]
  IC50: > 100 nM
[5]
  IC50: 84.8 nM
[6]
  viability, T/C: 96.2%
[7]
  viability, T/C: 90.9%
[8]
  viability, T/C: 75.6%
[9]
  viability, T/C: 67.9%
[10]
  viability, T/C: 62.5%
[11]
  viability, T/C: 55.4%
[12]
  viability, T/C: 91.7%
[13]
  viability, T/C: 97.7%
[14]
  viability, T/C: 92.8%
[15]
  viability, T/C: 70.8%
[16]
  viability, T/C: 66.9%
[17]
  viability, T/C: 53.3%
[18]
  viability, T/C: 97.8%
[19]
  viability, T/C: 90.6%
[20]
  viability, T/C: 77.3%
[21]
  viability, T/C: 71.9%
[22]
  viability, T/C: 67.4%
[23]
  viability, T/C: 53.5%
[24]
  viability, T/C: 93%
[25]
  viability, T/C: 93%
[26]
  viability, T/C: 81.4%
[27]
  viability, T/C: 70.2%
[28]
  viability, T/C: 66.7%
[29]
  viability, T/C: 56.4%
[30]
  viability, T/C: 99%
[31]
  viability, T/C: 89.9%
[32]
  viability, T/C: 74.6%
[33]
  viability, T/C: 77.2%
[34]
  viability, T/C: 59.8%
[35]
  viability, T/C: 47.5%

## Cn1nccc1Nc1nccc(-c2cc3c(s2)C(C)(C)N(CCN2CCOCC2)C3=O)n1
Compound 0.0316 µM
  viability, T/C: 109% and 83.6%
Compound 0.1 µM
  viability, T/C: 112% and 98.5%
Compound 0.316 µM
  viability, T/C: 123% and 98.7%
Compound 1 µM
  viability, T/C: 105% and 91.8%
Compound 3.16 µM
  viability, T/C: 85.4% and 76%
Compound 10 µM
  viability, T/C: 73.7% and 66.2%
Curve of compound
  IC50: > 10000 nM

## CC(=O)Nc1cccc(-n2c(=O)n(C3CC3)c(=O)c3c(Nc4ccc(I)cc4F)n(C)c(=O)c(C)c32)c1
Compound 0.0001 µM
  viability, T/C: 95.7% [middle of 5 runs]
Compound 0.000316 µM
  viability, T/C: 99.3% [middle of 5 runs]
Compound 0.00316 µM
  viability, T/C: 85.6% [middle of 5 runs]
Compound 0.01 µM
  viability, T/C: 72.2% [middle of 5 runs]
Compound 0.0316 µM
  viability, T/C: 44% [middle of 5 runs]

## CC(=O)OC12COC1CC(O)C1(C)C(=O)C(O)C3=C(C)C(OC(=O)C(O)C(NC(=O)OC(C)(C)C)c4ccccc4)CC(O)(C(OC(=O)c4ccccc4)C21)C3(C)C (centres undefined) + CNCc1ccccc1-c1csc(C(C)Nc2nc(C)nc3cc(OC)c(OC)cc23)c1
[1]
  IC50: > 3160 nM
[2]
  IC50: > 3160 nM
[3]
  IC50: > 3160 nM
[4]
  IC50: < 10 nM
[5]
  IC50: < 10 nM
[9]
  viability, T/C: 68.7%
[10]
  viability, T/C: 67.6%
[11]
  viability, T/C: 72.9%
[36]
  viability, T/C: 82.2%
[37]
  viability, T/C: 85.6%
[38]
  viability, T/C: 96.1%
[15]
  viability, T/C: 70.4%
[16]
  viability, T/C: 64.7%
[17]
  viability, T/C: 69.9%
[39]
  viability, T/C: 60.6%
[40]
  viability, T/C: 92%
[41]
  viability, T/C: 93.7%
[21]
  viability, T/C: 75.3%
[22]
  viability, T/C: 70.6%
[23]
  viability, T/C: 73.8%
[42]
  viability, T/C: 83.6%
[43]
  viability, T/C: 94.8%
[44]
  viability, T/C: 98.1%
[27]
  viability, T/C: 0.42%
[28]
  viability, T/C: 72.7%
[29]
  viability, T/C: 0.72%
[45]
  viability, T/C: 1.02%
[46]
  viability, T/C: 3.04%
[47]
  viability, T/C: 130%
[33]
  viability, T/C: 1.35%
[34]
  viability, T/C: 0.32%
[35]
  viability, T/C: 0.53%
[48]
  viability, T/C: 0.88%
[49]
  viability, T/C: 0.31%
[50]
  viability, T/C: 0.89%

## COc1cc2nccc(Oc3ccc(NC(=O)C4(C(=O)Nc5ccc(F)cc5)CC4)cc3)c2cc1OC + CC1OCC2(CCN(c3cnc(Sc4ccnc(N)c4Cl)c(N)n3)CC2)C1N
[1]
  IC50: > 10000 nM
[2]
  IC50: > 10000 nM
[3]
  IC50: > 10000 nM
[4]
  IC50: > 10000 nM
[5]
  IC50: > 10000 nM
[10]
  viability, T/C: 93.7%
[11]
  viability, T/C: 93.7%
[36]
  viability, T/C: 89.3%
[37]
  viability, T/C: 102%
[38]
  viability, T/C: 105%
[51]
  viability, T/C: 102%
[16]
  viability, T/C: 97.5%
[17]
  viability, T/C: 91%
[39]
  viability, T/C: 89.3%
[40]
  viability, T/C: 105%
[41]
  viability, T/C: 108%
[52]
  viability, T/C: 86.5%
[22]
  viability, T/C: 116%
[23]
  viability, T/C: 96.8%
[42]
  viability, T/C: 108%
[43]
  viability, T/C: 112%
[44]
  viability, T/C: 90.7%
[53]
  viability, T/C: 90%
[28]
  viability, T/C: 115%
[29]
  viability, T/C: 122%
[45]
  viability, T/C: 118%
[46]
  viability, T/C: 119%
[47]
  viability, T/C: 103%
[54]
  viability, T/C: 81.6%
[34]
  viability, T/C: 112%
[35]
  viability, T/C: 121%
[48]
  viability, T/C: 111%
[49]
  viability, T/C: 119%
[50]
  viability, T/C: 80.6%
[55]
  viability, T/C: 67.7%

## COc1cc(Nc2ncc3c(n2)-c2ccc(Cl)cc2C(c2c(F)cccc2OC)=NC3)ccc1C(=O)O + CNCc1ccccc1-c1csc(C(C)Nc2nc(C)nc3cc(OC)c(OC)cc23)c1
[1]
  IC50: > 10000 nM
[2]
  IC50: > 10000 nM
[3]
  IC50: > 10000 nM
[4]
  IC50: < 31.6 nM
[5]
  IC50: < 31.6 nM
[10]
  viability, T/C: 95.5%
[11]
  viability, T/C: 89.9%
[36]
  viability, T/C: 94.6%
[37]
  viability, T/C: 101%
[38]
  viability, T/C: 113%
[51]
  viability, T/C: 89.4%
[16]
  viability, T/C: 104%
[17]
  viability, T/C: 84.6%
[39]
  viability, T/C: 90.9%
[40]
  viability, T/C: 88.7%
[41]
  viability, T/C: 90.7%
[52]
  viability, T/C: 104%
[22]
  viability, T/C: 93.6%
[23]
  viability, T/C: 73.3%
[42]
  viability, T/C: 86.7%
[43]
  viability, T/C: 78.2%
[44]
  viability, T/C: 87.3%
[53]
  viability, T/C: 88.6%
[28]
  viability, T/C: 1.45%
[29]
  viability, T/C: 0.8%
[45]
  viability, T/C: 0.53%
[46]
  viability, T/C: 1.47%
[47]
  viability, T/C: 2.38%
[54]
  viability, T/C: 2.86%
[34]
  viability, T/C: 0.82%
[35]
  viability, T/C: 1.21%
[48]
  viability, T/C: 0.68%
[49]
  viability, T/C: 0.35%
[50]
  viability, T/C: 0.3%
[55]
  viability, T/C: 0.59%

## CN(C)C/C=C/C(=O)Nc1cc2c(Nc3ccc(F)c(Cl)c3)ncnc2cc1O[C@H]1CCOC1 + COc1cc2nc(C)nc(NC(C)c3cc(N)cc(C(F)(F)F)c3)c2cc1OC1CCOC1
[1]
  IC50: > 100 nM
[2]
  IC50: > 100 nM
[3]
  IC50: > 100 nM
[4]
  IC50: 2.84 nM
[5]
  IC50: 3.2 nM
[6]
  viability, T/C: 89.3%
[7]
  viability, T/C: 78.3%
[8]
  viability, T/C: 72.3%
[9]
  viability, T/C: 61.2%
[10]
  viability, T/C: 54%
[11]
  viability, T/C: 55.5%
[12]
  viability, T/C: 93%
[13]
  viability, T/C: 106%
[14]
  viability, T/C: 78.5%
[15]
  viability, T/C: 65%
[16]
  viability, T/C: 54.7%
[17]
  viability, T/C: 53.2%
[18]
  viability, T/C: 105%
[19]
  viability, T/C: 100%
[20]
  viability, T/C: 89.5%
[21]
  viability, T/C: 61.8%
[22]
  viability, T/C: 56.1%
[23]
  viability, T/C: 48.6%
[24]
  viability, T/C: 84%
[25]
  viability, T/C: 78.2%
[26]
  viability, T/C: 46.9%
[27]
  viability, T/C: 51.1%
[28]
  viability, T/C: 44.4%
[29]
  viability, T/C: 45.5%
[30]
  viability, T/C: 59.8%
[31]
  viability, T/C: 54.9%
[32]
  viability, T/C: 50.2%
[33]
  viability, T/C: 26.2%
[34]
  viability, T/C: 32.8%
[35]
  viability, T/C: 25.4%
